# Source: patent US20240350522A1, “HYGROMYCIN A FOR TREATMENT OF DISEASES AND INFECTIONS” (FLIGHTPATH BIOSCIENCES, INC., priority 2021, published 2024)
# Where “and” joins values, the source holds several entries; their conditions need not be identical. Equal values may be shown once. Read-outs that look alike come from different tables or passages of the source.
# Key:
# [1] = test system: Fusobacterium nucleatum (ATCC 25586); test: MIC of Hyg A against F. nucleatum ATCC 25586; type: cell-based; conditions: ATCC25586
# [2] = test system: Parvimonas micra (ATCC 33270); test: MBC of Hyg A against P. micra; type: cell-based; conditions: for MBC: ATCC33270
# [3] = test system: Treponema pallidum pallidum Chicago strain; test: Treated treponemes seeded onto no-antibiotic plate, 7 more days, T47 qPCR (treponemicidal activity); type: cell-based; conditions: for Mean T47 copies/μL, Avg. / Mean T47 copies/μL, Expt. values: seeded on no antibiotic plate; for Mean T47 copies/μL, Avg.: average; for Mean T47 copies/μL, Expt. values: replicate wells
# [4] = test system: Porphyromonas gingivalis (ATCC 33277); test: MBC of Hyg A against P. gingivalis; type: cell-based
# F. nucleatum vincentii = test: Kirby-Bauer diffusion assay; type: cell-based, Fusobacterium nucleatum; conditions: for zone of inhibition at 5 µg/disc / zone of inhibition at 10 µg/disc / zone of inhibition at 20 µg/disc / zone of inhibition at 40 µg/disc: Fusobacterium nucleatum, mean (SEM), read-out: size of zone inhibition (mm); for zone of inhibition at 5 µg/disc: Hyg A 5 μg per disc; for zone of inhibition at 10 µg/disc: Hyg A 10 μg per disc; for zone of inhibition at 20 µg/disc: Hyg A 20 μg per disc; for zone of inhibition at 40 µg/disc: Hyg A 40 μg per disc
# Description: (§1) Three representatives of 6 subspecies of Fusobacterium nucleatum (F. nucleatum) for a total of 18 strains were tested in the experiment. The sub species and strains are described in Table 2.
# (§2) All strains were verified by 16S V3/V6 sequence analysis prior to use. The methods described herein were performed in an anaerobic chamber at 37° C. All media and plates were degassed prior to use.
# (§3) Hygromycin A (Hyg A) discs were prepared by solubilizing Hyg A in distilled water and sterile filtered. Clindamycin was used as a positive control. Defined amounts of hygromycin A (40, 20, 10 or 5 micrograms), clindamycin (2 micrograms) or sterile distilled water were absorbed onto Kirby-Bauer discs in a biosafety cabinet.
# (§4) An overnight culture was grown in Wilkins-Chalgren (WC) broth and back-diluted 1:10 in fresh broth. When an OD 600 reading reached 0.5, 300 μL of the log phase culture was plated onto WC agar plates. The plates were sectioned into quadrants and a Kirby-Bauer (KB) disc impregnated with a defined amount of hygromycin A was placed in each quadrant. Plates were prepared thus in triplicate and the four amounts of hygromycin A were 40, 20 10 and 5 micrograms. The same volume of culture was spread on fourth plate sectioned into six sections for three positive and three negative controls. KB discs with water served as negative controls and KB discs impregnated with 2 micrograms of clindamycin served as positive controls. […] Table 3, Table 4, Table 5, Table 6, Table 7, Table 8 show the mean size of zone inhibitions for each of the subspecies tested using increasing concentrations of hygromycin A where the standard error of mean is represented in parenthesis.
# (§5) The amount of hygromycin A was plotted against the size of the zone of inhibition for each strain tested.
# F. nucleatum animalis = test: Kirby-Bauer diffusion assay; type: cell-based, Fusobacterium nucleatum; conditions: Fusobacterium nucleatum, strain 7_1, mean (SEM), read-out: size of zone inhibition (mm)
# Description: as §1, §2, §3, §4, §5
# [5] = pre-treated with Hygromycin A 0.03 μg/ml
# [6] = pre-treated with Hygromycin A 0.06 μg/ml
# [7] = pre-treated with Hygromycin A 0.12 μg/ml
# [8] = pre-treated with Hygromycin A 0.24 μg/ml
# [9] = pre-treated with Hygromycin A 0.48 μg/ml
# [10] = pre-treated with Hygromycin A 0.96 μg/ml
# [11] = pre-treated with Hygromycin A 1.92 μg/ml
# [12] = pre-treated with Hygromycin A 3.84 μg/ml
compound,measurement,setting,value
"CC(=O)[C@H]1O[C@@H](Oc2ccc(/C=C(\C)C(=O)N[C@@H]3[C@H](O)[C@@H](O)[C@H]4OCO[C@H]4[C@@H]3O)cc2O)[C@@H](O)[C@@H]1O [Hyg A, Hygromycin A]",MIC,"[1]; Fusobacterium nucleatum ATCC 25586, read-out: MIC",~1 µg/mL
same,MIC,"[1]; Fusobacterium nucleatum, F. nucleatum 25586, experiment 1, read-out: MIC (μg/ml) 1",1 µg/mL
same,MIC,"[1]; Fusobacterium nucleatum, F. nucleatum 25586, experiment 2, read-out: MIC (μg/ml) 2",1 µg/mL
same,MBC,"[2]; Parvimonas micra ATCC 33270, read-out: MBC",> 10 µg/mL
same,type of effect (bactericidal/bacteriostatic),[2]; P. micra,bacteriostatic
same,MIC:MBC ratio,[2]; P. micra 33270,>0.2
same,MBC,"[2]; Parvimonas micra, P. micra 33270, experiment 1, read-out: MBC (μg/ml) 1",> 10 µg/mL
same,MBC,"[2]; Parvimonas micra, P. micra 33270, experiment 2, read-out: MBC (μg/ml) 2",> 10 µg/mL
same,concentration with treponemicidal activity,[3]; Chicago strain seeded onto no-antibiotic control plate,≥ 0.12 µg/mL
same,"Mean T47 copies/μL, Avg.",[3]; [5],14552 copies/μL
same,"Mean T47 copies/μL, Expt. values",[3]; [5],10276 copies/μL and 18338 copies/μL and 20335 copies/μL and 9952 copies/μL
same,"Mean T47 copies/μL, Avg.",[3]; [6],1000 copies/μL
same,"Mean T47 copies/μL, Expt. values",[3]; [6],744 copies/μL and 560 copies/μL and 2087 copies/μL and 892 copies/μL
same,"Mean T47 copies/μL, Avg.",[3]; [7],28 copies/μL
same,"Mean T47 copies/μL, Expt. values",[3]; [7],13 copies/μL and 19 copies/μL and 39 copies/μL and 22 copies/μL
same,"Mean T47 copies/μL, Avg.",[3]; [8],32 copies/μL
same,"Mean T47 copies/μL, Expt. values",[3]; [8],17 copies/μL and 41 copies/μL and 22 copies/μL and 52 copies/μL
same,"Mean T47 copies/μL, Avg.",[3]; [9],26 copies/μL
same,"Mean T47 copies/μL, Expt. values",[3]; [9],0 copies/μL and 32 copies/μL (2×) and 23 copies/μL and 22 copies/μL
same,"Mean T47 copies/μL, Avg.",[3]; [10],24 copies/μL
same,"Mean T47 copies/μL, Expt. values",[3]; [10],14 copies/μL and 23 copies/μL and 31 copies/μL and 27 copies/μL and 7 copies/μL
same,"Mean T47 copies/μL, Avg.",[3]; [11],23 copies/μL
same,"Mean T47 copies/μL, Expt. values",[3]; [11],28 copies/μL and 8 copies/μL and 23 copies/μL and 36 copies/μL and 34 copies/μL
same,"Mean T47 copies/μL, Avg.",[3]; [12],27 copies/μL
same,"Mean T47 copies/μL, Expt. values",[3]; [12],37 copies/μL and 24 copies/μL and 27 copies/μL and 41 copies/μL and 13 copies/μL
same,MBC,"[4]; ATCC33277, P. gingivalis 33277, experiment 1, read-out: MBC (μg/ml) 1",> 5 µg/mL
same,MBC,"[4]; ATCC33277, P. gingivalis 33277, experiment 2, read-out: MBC (μg/ml) 2",> 5 µg/mL
same,zone of inhibition at 5 µg/disc,F. nucleatum vincentii; strain 3/1/36A2,19 mm
same,zone of inhibition at 10 µg/disc,F. nucleatum vincentii; strain 3/1/36A2,21.3 mm
same,zone of inhibition at 20 µg/disc,F. nucleatum vincentii; strain 3/1/36A2,24.7 mm
same,zone of inhibition at 40 µg/disc,F. nucleatum vincentii; strain 3/1/36A2,27.7 mm
same,zone of inhibition at 5 µg/disc,F. nucleatum vincentii; strain 215A9,0 mm
same,zone of inhibition at 10 µg/disc,F. nucleatum vincentii; strain 215A9,0 mm
same,zone of inhibition at 20 µg/disc,F. nucleatum vincentii; strain 215A9,0 mm
same,zone of inhibition at 40 µg/disc,F. nucleatum vincentii; strain 215A9,0 mm
same,zone of inhibition at 5 µg/disc,F. nucleatum vincentii; strain CC53,16.3 mm
same,zone of inhibition at 10 µg/disc,F. nucleatum vincentii; strain CC53,21.3 mm
same,zone of inhibition at 20 µg/disc,F. nucleatum vincentii; strain CC53,24 mm
same,zone of inhibition at 40 µg/disc,F. nucleatum vincentii; strain CC53,27.3 mm
same,strain sensitivity in words,"F. nucleatum vincentii; strain 215A9, 5-40 μg discs",fully resistant
same,zone of inhibition at 5 µg/disc,F. nucleatum animalis; Hyg A 5 μg per disc,18.3 mm
same,zone of inhibition at 10 µg/disc,F. nucleatum animalis; Hyg A 10 μg per disc,18 mm
same,zone of inhibition at 20 µg/disc,F. nucleatum animalis; Hyg A 20 μg per disc,22.7 mm
